Results from US20240246964A1 (Arbutus Biopharma Corporation, priority 2021, published 2024).

Target: human PD-L1 (Homo sapiens (Human), UniProt Q9NZQ7)
Experiment: T cell activation luciferase reporter cell culture system (T Cell Activation Assay)
Format: cell-based
Conditions: luciferase reporter assay; PD-L1 aAPC/CHO-K1 cells with PD-1 effector Jurkat T cells

human PD-L1, sequence (Q9NZQ7 19-290): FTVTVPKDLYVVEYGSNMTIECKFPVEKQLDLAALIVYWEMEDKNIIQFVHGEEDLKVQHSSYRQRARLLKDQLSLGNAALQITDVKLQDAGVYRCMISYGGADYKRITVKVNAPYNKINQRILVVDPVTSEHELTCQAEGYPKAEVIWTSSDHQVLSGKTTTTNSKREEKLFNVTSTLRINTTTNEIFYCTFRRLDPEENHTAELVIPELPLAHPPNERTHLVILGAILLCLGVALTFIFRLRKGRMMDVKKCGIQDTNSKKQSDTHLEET

Structure (SMILES) | EC50
COc1cc(-c2nccc(-c3cccc(-c4ccc(CN5CC6(CNC(=O)C6)C5)c(OC)n4)c3Cl)c2C)ccc1CN1CC2(CNC(=O)C2)C1 [Example 368, 2-((6-(2-Chloro-3-(2-(3-methoxy-4-((7-oxo-2,6-diazaspiro[3.4]octan-2-yl)methyl)phenyl)-3-methylpyridin-4-yl)phenyl)-2-methoxypyridin-3-yl)methyl)-2,6-diazaspiro[3.4]octan-7-one] | 37.4 nM
COc1cc(-c2nccc(-c3cccc(-c4ccc(CNCC5(CO)CC5)c(OC)n4)c3Cl)c2Cl)cc2c1CN(CCCF)CC2 [Example 252, (1-((((6-(2-Chloro-3-(3-chloro-2-(2-(3-fluoropropyl)-8-methoxy-1,2,3,4-tetrahydroisoquinolin-6-yl)pyridin-4-yl)phenyl)-2-methoxypyridin-3-yl)methyl)amino)methyl)cyclopropyl)methanol] | 54 nM
COc1nc(-c2cccc(-c3ccnc(-c4cc(OC)c5nc(CNCCC6(C(=O)O)CC6)nn5c4)c3Cl)c2Cl)ccc1CNC[C@@H]1CCC(=O)N1 [Example 262, (S)-1-(2-(((6-(3-Chloro-4-(2-chloro-3-(6-methoxy-5-((((5-oxopyrrolidin-2-yl)methyl)amino)methyl)pyridin-2-yl)phenyl)pyridin-2-yl)-8-methoxy-[1,2,4]triazolo[1,5-a]pyridin-2-yl)methyl)amino)ethyl)cyclopropane-1-carboxylic acid] | 82.8 nM
COc1nc(-c2cccc(-c3ccnc(-c4cc(Cl)c5c(c4)CCN(CCCF)C5)c3Cl)c2Cl)ccc1CNC[C@@H]1CCC(=O)N1 [Cmpd 72, (S)-5-((((6-(2-chloro-3-(3-chloro-2-(8-chloro-2-(3-fluoropropyl)-1,2,3,4-tetrahydroisoquinolin-6-yl)pyridin-4-yl)phenyl)-2-methoxypyridin-3-yl)methyl)amino)methyl)pyrrolidin-2-one] | 392 nM
COC(=O)CCN1CCc2cc(-c3nccc(-c4cccc(-c5ccc(CN6CC7(CNC(=O)C7)C6)c(OC)n5)c4Cl)c3Cl)cc(OC)c2C1 [Example 273, Methyl 3-(6-(3-chloro-4-(2-chloro-3-(6-methoxy-5-((7-oxo-2,6-diazaspiro[3.4]octan-2-yl)methyl)pyridin-2-yl)phenyl)pyridin-2-yl)-8-methoxy-3,4-dihydroisoquinolin-2(1H)-yl)propanoate] | 116 nM
COc1cc(-c2nccc(-c3cccc(-c4ccc(CNC[C@@H]5CCC(=O)N5)c(OC)n4)c3Cl)c2Cl)cc2c1CN(CC(O)C(C)C)CC2 (stereo partly drawn) [Cmpd 53, (5S)-5-((((6-(2-chloro-3-(3-chloro-2-(2-(2-hydroxy-3-methylbutyl)-8-methoxy-1,2,3,4-tetrahydroisoquinolin-6-yl)pyridin-4-yl)phenyl)-2-methoxypyridin-3-yl)methyl)amino)methyl)pyrrolidin-2-one] | 399 nM
CNCc1ccc(-c2nccc(-c3cccc(-c4ccc(CNC)c(OC)n4)c3C(F)(F)F)c2Cl)cc1OC [Example 613, 1-(6-(3-(3-Chloro-2-(3-methoxy-4-((methylamino)methyl)phenyl)pyridin-4-yl)-2-(trifluoromethyl)phenyl)-2-methoxypyridin-3-yl)-N-methylmethanamine] | ≥ 10000 nM
COc1nc(-c2ccnc(-c3cccc4c3CC[C@@H]4Nc3nc(OC)c(CNC[C@@H]4CCC(=O)N4)cc3C(F)(F)F)c2Cl)ccc1CNC1CCOCC1 [Example 666, (S)-5-((((6-(((S)-4-(3′-Chloro-6-methoxy-5-(((tetrahydro-2H-pyran-4-yl)amino)methyl)-[2,4′-bipyridin]-2′-yl)-2,3-dihydro-1H-inden-1-yl)amino)-2-methoxy-5-(trifluoromethyl)pyridin-3-yl)methyl)amino)methyl)pyrrolidin-2-one] | 114 nM
COc1nc(-c2cccc(-c3ccnc(-c4cnn(C5CNC5)c4)c3Cl)c2Cl)ccc1CNC[C@@H]1CCC(=O)N1 [Cmpd 119, (S)-5-((((6-(3-(2-(1-(azetidin-3-yl)-1H-pyrazol-4-yl)-3-chloropyridin-4-yl)-2-chlorophenyl)-2-methoxypyridin-3-yl)methyl)amino)methyl)pyrrolidin-2-one] | 370 nM

Other lines, results leading:

EC50 | Structure (SMILES)
79 nM | COc1cc(-c2ncnc(-c3cccc(-c4ccc(CNC5CCOCC5)c(OC)n4)c3Cl)c2Cl)ccc1CNC1CCOCC1 [Example 626, N-((6-(2-Chloro-3-(5-chloro-6-(3-methoxy-4-(((tetrahydro-2H-pyran-4-yl)amino)methyl)phenyl)pyrimidin-4-yl)phenyl)-2-methoxypyridin-3-yl)methyl)tetrahydro-2H-pyran-4-amine]
89.7 nM | COc1cc(-c2nccc(-c3cccc(-c4ccc(CNC[C@@H]5CCC(=O)N5)c(OC)n4)c3Cl)c2Cl)ccc1CN1CC[C@H](C(=O)OC(C)C)C1 [Cmpd 76, isopropyl (S)-1-(4-(3-chloro-4-(2-chloro-3-(6-methoxy-5-(((((S)-5-oxopyrrolidin-2-yl)methyl)amino)methyl)pyridin-2-yl)phenyl)pyridin-2-yl)-2-methoxybenzyl)pyrrolidine-3-carboxylate]
15 nM | COc1cc(-c2nccc(-c3cccc(-c4ccc(CNC[C@@H]5CCC(=O)N5)c(OC)n4)c3Cl)c2Cl)ccc1CNC[C@@H]1CCC(=O)N1 [Cmpd 8, (S)-5-((((6-(2-chloro-3-(3-chloro-2-(3-methoxy-4-(((((S)-5-oxopyrrolidin-2-yl)methyl)amino)methyl)phenyl)pyridin-4-yl)phenyl)-2-methoxypyridin-3-yl)methyl)amino)methyl)pyrrolidin-2-one]
39.9 nM | COc1nc(-c2cccc(-c3ccnc(-c4ccc(CN5CC6(C5)CN(C(C)=O)C6)c(OC(F)F)c4)c3Cl)c2Cl)ccc1CNC1CCOCC1 [Example 663, 1-(6-(4-(3-Chloro-4-(2-chloro-3-(6-methoxy-5-(((tetrahydro-2H-pyran-4-yl)amino)methyl)pyridin-2-yl)phenyl)pyridin-2-yl)-2-(difluoromethoxy)benzyl)-2,6-diazaspiro[3.3]heptan-2-yl)ethan-1-one]
40.5 nM | COc1cc(-c2nccc(-c3cccc(-c4ccc(CNC5CCN(C(C)=O)CC5)c(OC)n4)c3Cl)c2Cl)ccc1CN1CC2(CC(O)C2)C1 [Example 361, 1-(4-(((6-(2-Chloro-3-(3-chloro-2-(4-((6-hydroxy-2-azaspiro[3.3]heptan-2-yl)methyl)-3-methoxyphenyl)pyridin-4-yl)phenyl)-2-methoxypyridin-3-yl)methyl)amino)piperidin-1-yl)ethan-1-one]
29.6 nM | COc1cc(-c2nccc(-c3cccc(-c4ccc(CN5CC6(CCN(C(C)=O)C6)C5)c(OC)n4)c3Cl)c2Cl)ccc1CN1CC2(CCN(C(C)=O)C2)C1 [Example 671, 1-(2-((6-(3-(2-(4-((6-Acetyl-2,6-diazaspiro[3.4]octan-2-yl)methyl)-3-methoxyphenyl)-3-chloropyridin-4-yl)-2-chlorophenyl)-2-methoxypyridin-3-yl)methyl)-2,6-diazaspiro[3.4]octan-6-yl)ethan-1-one]
825 nM | COc1cc(-c2nccc(-c3cccc(NC(=O)c4ccc(CNC[C@@H]5CCC(=O)N5)cn4)c3C)c2Cl)ccc1CNC1CCN(C(C)=O)CC1 [Example 747, (S)—N-(3-(2-(4-(((1-acetylpiperidin-4-yl)amino)methyl)-3-methoxyphenyl)-3-chloropyridin-4-yl)-2-methylphenyl)-5-((((5-oxopyrrolidin-2-yl)methyl)amino)methyl)picolinamide]
73.8 nM | COc1cc(-c2nccc(-c3cccc(-c4ccc(CNCC5CCOCC5)c(OC)n4)c3Cl)c2Cl)ccc1CNCC1CCOCC1 [Example 330, 1-(6-(2-Chloro-3-(3-chloro-2-(3-methoxy-4-((((tetrahydro-2H-pyran-4-yl)methyl)amino)methyl)phenyl)pyridin-4-yl)phenyl)-2-methoxypyridin-3-yl)-N-((tetrahydro-2H-pyran-4-yl)methyl)methanamine]
69.6 nM | COc1cc(-c2nccc(-c3cccc(-c4ccc(CNC5CCN(C(=O)C(C)C)CC5)c(OC)n4)c3Cl)c2Cl)cc(F)c1CNC1CCN(C(=O)C(C)C)CC1 [Example 347, 1-(4-(((6-(2-Chloro-3-(3-chloro-2-(3-fluoro-4-(((1-isobutyrylpiperidin-4-yl)amino)methyl)-5-methoxyphenyl)pyridin-4-yl)phenyl)-2-methoxypyridin-3-yl)methyl)amino)piperidin-1-yl)-2-methylpropan-1-one]
44.2 nM | COc1cc(-c2nccc(-c3cccc(-c4ccc5c(CNC[C@@H]6CCCO6)cn(C)c5n4)c3Cl)c2Cl)ccc1CNC[C@@H]1CCC(=O)N1 [Cmpd 93, (S)-5-(((4-(3-chloro-4-(2-chloro-3-(1-methyl-3-(((((S)-tetrahydrofuran-2-yl)methyl)amino)methyl)-1H-pyrrolo[2,3-b]pyridin-6-yl)phenyl)pyridin-2-yl)-2-methoxybenzyl)amino)methyl)pyrrolidin-2-one]
10.5 nM | COc1cc(-c2nccc(-c3cccc(-c4ccc(CNC5CCN(C(=O)CO)CC5)c(OC)n4)c3Cl)c2Cl)ccc1CNC1CCN(C(=O)CO)CC1 [Example 443, 1-(4-(((6-(2-Chloro-3-(3-chloro-2-(4-(((1-(2-hydroxyacetyl)piperidin-4-yl)amino)methyl)-3-methoxyphenyl)pyridin-4-yl)phenyl)-2-methoxypyridin-3-yl)methyl)amino)piperidin-1-yl)-2-hydroxyethan-1-one]
23.9 nM | COc1cc(-c2nccc(-c3cccc(-c4ccc(CNC5CCN(C(C)=O)CC5)c(OC)n4)c3Cl)c2C#N)ccc1CNC1CCN(C(C)=O)CC1 [Example 404, 2-(4-(((1-Acetylpiperidin-4-yl)amino)methyl)-3-methoxyphenyl)-4-(3-(5-(((1-acetylpiperidin-4-yl)amino)methyl)-6-methoxypyridin-2-yl)-2-chlorophenyl)nicotinonitrile]
114 nM | COc1nc(-c2ccnc(-c3cccc4c3CC[C@@H]4Nc3nc(OC)c(CNC[C@@H]4CCC(=O)N4)cc3C(F)(F)F)c2Cl)ccc1CNC1CCN(C(C)=O)CC1 [Example 486, (S)-5-((((6-(((S)-4-(5-(((1-Acetylpiperidin-4-yl)amino)methyl)-3′-chloro-6-methoxy-[2,4′-bipyridin]-2′-yl)-2,3-dihydro-1H-inden-1-yl)amino)-2-methoxy-5-(trifluoromethyl)pyridin-3-yl)methyl)amino)methyl)pyrrolidin-2-one]
